Values quoted from earlier work as cited in US9173940B1, “Mixture of betamethasone and tranilast with a transdermal gel for scar treatment” (PROFESSIONAL COMPOUNDING CENTERS OF AMERICA (PCCA), priority 2014, dated 2015).

Conditions: taken orally

oral absorption: well-absorbed
Structure (SMILES): COc1ccc(/C=C/C(=O)Nc2ccccc2C(=O)O)cc1OC [Tranilast]
